Results taken from US9555032B2, “Methods for treatment and prevention of tauopathies and amyloid beta amyloidosis by modulating CRF receptor signaling” (Research Development Foundation, priority 2007, dated 2017).
Entries after “also recorded” stand apart in the source; their conditions may differ.

Columns and labels:
[1] = tested on: tau phosphorylation (tau-P) at the AT8 and PHF-1 sites; assay: Acute restraint stress-induced tau phosphorylation, Western blot of hippocampal extracts, CRF-R1 antagonist pretreatment; assay type: in vivo, mouse
Protocol: Acute restraint stress involved placing mice in ventilated 50 ml conical tubes for 30 min; repeated stress involved 14 consecutive daily exposures. Animals were killed at various intervals ranging from 20 min to 24 hr after stress. Control mice were handled comparably, but were not otherwise manipulated.
The small molecule, CRF-R1-selective antagonist, antalarmin (Webster et al., 1996), was administered at 20 mg/kg by intraperitoneal (ip) injection 20 min before stress exposure. All animals were handled twice daily for 28 d prior to experimentation, and received daily mock ip injections to minimize stress of injection at testing. […]
After sedation, the animals were decapitated and the hippocampus was rapidly dissected and frozen on dry ice. […] Protein concentrations were determined using a BCA Protein Assay Kit (Pierce Biotechnology, Rockford, Ill.). […] Primary antibodies were detected with either anti-mouse or rabbit horseradish peroxidase-linked secondary antibodies (1:1000 Calbiochem, San Diego, Calif.) and developed with an enhanced chemiluminescence Western blot detection kit (Supersignal West Pico, Pierce Biotechnology). Background subtraction was performed and quantitative band intensity readings were obtained using NIH Image software. […]

[2] = tested on: PS/APP mouse AD model (amyloid plaques); assay: Amyloid plaque density in PS/APP transgenic mouse AD model with or without chronic variable stress; assay type: in vivo; details: antalarmin 40 mg/kg/d ip; for density of plaques in cortex and hippocampus: sacrificed end of fifth month
Text: The PS/APP mouse line was originally purchased from another research laboratory. These mice express the Swedish familial AD mutation of human amyloid precursor protein (APP) (APPK670N,M671L; line Tg2576) and the familial AD mutation of presenilin-1 (PSEN1-dE9) (Jankowsky et al., 2001). Hemizygous double mutant PS/APP offspring and non-transgenic mice were used in experimentation, as it has been reported that homozygote lines of Tg2576 cannot be generated (McGowan et al., 1999). Genotypes were determined by PCR analysis of ear or tail DNA.
For acute stress experiments, CRFR1-selective small molecule antagonist, antalarmin (Webster et al., 1996), was administered at 20 mg/kg by intraperitoneal (ip) injection 20 min before stress exposure. All animals were handled twice daily for at least 14d prior to experimentation, and receive daily mock ip injections to minimize stress of injection at testing. Antalarmin was solubilized in equal volumes of absolute ethanol and Cremaphor EL (Sigma-Aldrich, St. Louis, Mo.), as described (Webster et al., 1996; Pernar et al., 2004). This stock solution was diluted in prewarmed (50° C.) distilled water and adjusted to a final concentration of 4 mg/ml immediately prior to injection. For chronic administration, antalarmin was administered twice daily via ip injection (Wong et al., 1999).
CVS involved daily exposure to either two brief or one sustained stressor over 15d. Brief stressors included elevated plus maze exposure (30 min), shaker stress (30 min on an orbital shaker at 100 rpm), ip hypertonic saline injection (0.4 ml of 1.5M saline), restraint (30 min), tail suspension (10 min) and forced swimming (10 min in RT water). […]
There was no evidence of tau pathology (tangle formation), nor was it expected to develop in animals at this early stage of disease progression. […] While it remains to be determined whether this effect will maintain in older animals, and whether drug and/or stress exposure will affect tau pathology, the results provide an additional endorsement for considering CRFR1 as a therapeutic target in AD.

[3] = Gerhlert et al., 2007; cited from earlier work
[4] = Gerhlert et al., 2007; cited from earlier work; remark: listed apart in the source
[5] = tested on: hippocampal tau-P (PHF-1 immunoreactivity); assay: Intracerebroventricular CRF injection, PHF-1 immunohistochemistry of hippocampus; assay type: in vivo, mouse; details: 0.5 μg CRF icv, 40 min after administration
Text: CRF-R1−/− (U.S. Pat. No. 6,147,275) and CRF-R2−/− (U.S. Pat. No. 6,353,152) mice, along with age-matched wt controls (n=3/group), were anesthetized with isoflurane, and implanted stereotaxically with 26-ga guide cannulae (Plastics One, Wallingford, Conn.) aimed to terminate above the lateral ventricle. Cannulae were affixed to the skull with dental acrylic adhering to jeweler's screws partially driven into the skull, and sealed externally with stylets. After 7 d recovery, stylets were replaced with 33-ga injection cannulae, and 2 hr later the animals were remotely injected with 0.5 μg synthetic mouse/human CRF in […] saline, or vehicle alone, over ˜1 min. To approximate the time frame used in acute stress experiments, animals were killed 40 min after icy injection and perfused for immunohistochemistry, as above. CRF was generously provided by Dr. J. Rivier (Salk Institute).
Mice were perfused with 4% paraformaldehyde, as previously described (Bittencourt and Sawchenko, 2000). 30 μm-thick frozen sections were cut on a sliding microtome and stored at −20° C. in cryoprotectant solution (20% glycerol and 30% ethylene glycol in 0.1 M phosphate buffer) until use. Free-floating sections containing the hippocampus were used to detect tau-P with PHF-1 (1:500) in mouse tissues using Mouse-on-Mouse Immunodetection Kit reagents (Vector, Burlingame, Calif.) to avoid detection of endogenous mouse immunoglobulin. Endogenous peroxidase was quenched with 0.3% hydrogen peroxide, followed by 1% sodium borohydride to reduce free aldehydes. Reaction product was developed using a nickel-enhanced glucose oxidase method (Shu et al., 1988).
To determine whether CRF is capable of independently eliciting hippocampal tau-P, wt and CRF-R-deficient mice were implanted with lateral ventricular cannulae for icy injection. Resultant PHF-1 immunoreactivity was examined 40 min after administration of CRF (0.5 μg in 5 μl) or vehicle (FIG. 4B). […] In contrast to stress effects, however, no labeling of pyramidal neurons or their processes was observed after icy CRF injections.

[6] = tested on: interstitial fluid levels of Aβ; details: central CRF administration; APP transgenic mice; Kang et al., 2007; cited from earlier work

## CCCCN(CC)c1nc(C)nc2c1c(C)c(C)n2-c1c(C)cc(C)cc1C [antalarmin]
[1]; antalarmin 20 mg/kg ip 20 min before 30 min acute restraint, hippocampal extracts 20 min post-stress
  stress-induced increments in tau phosphorylation at the AT8 and PHF-1 sites: prevented stress-induced increments in phosphorylation at both sites; also recorded: blocked the stress-induced increment
[1]; antalarmin 20 mg/kg ip, unstressed mice, hippocampal extracts, relative to untreated controls
  basal levels of tau-P at the AT8 or PHF-1 sites: Neither antalarmin nor the vehicle used for its administration significantly altered basal levels of tau-P; also recorded: did not affect basal levels of phosphorylation
[2]; both stressed and unstressed PS/APP mice, cerebral cortex
  density of plaques (change by antagonist treatment): significantly reduced
[2]; stressed (CVS) PS/APP mice
  density of plaques in cortex and hippocampus: 2.49 /mm^2
[2]; unstressed PS/APP mice
  density of plaques in cortex and hippocampus: 1.15 /mm^2

## CCC(CC)c1cc(C)nn2c(-c3sc(N4CCOCC4)nc3Cl)c(C)nc12 [MTIP, 3-(4-Chloro-2-Morpholin-4-yl-Thiazol-5-yl)-8-(1-Ethylpropyl)-2,6-Dimethyl-Imidazo[1,2b]Pyridazine]
[3]
  solubility: favorable solubility
[4]
  ability to cross the BBB: has the ability to cross the BBB

## CRF: synthetic mouse/human corticotropin-releasing factor peptide, injected icv (SEEPPISLDLTFHLLREVLEMARAEQLAQQAHSNRKLMEII)
[5]; CRF-R1-/- mice
  hippocampal tau-P (PHF-1 labeling) after icv CRF: comparable to the low level seen in saline-injected controls
[5]; CRF-R2-/- mice
  hippocampal tau-P (PHF-1 immunoreactivity) after icv CRF: robust increases in hippocampal tau-P
[5]; wt mice
  hippocampal tau-P (PHF-1 immunoreactivity) after icv CRF: robust increases in hippocampal tau-P
[6]
  interstitial fluid levels of Aβ: can increase interstitial fluid levels of Aβ
